According to ChEMBL document CHEMBL1201862, “PubChem BioAssay data set” (2004):
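Protocol summary: plate cells (96-well), add compound at 5 concentrations, incubate 48 h, interpolate endpoints linearly. Here, GI50 denotes the concentration required for 50% inhibition of growth.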 Calls of active or inactive are those of the source. Cut-off read from the data, not from the text of the source: active = GI50 up to about 1.1 µM and inactive = higher.

How the values were obtained:
Assay in all cases: NCI anticancer screen, dose series, 48 h
[1] = tested on: ACHN
[2] = tested on: EKVX
[3] = tested on: HL-60
[4] = tested on: HOP-92
[5] = tested on: KM-20L2
[6] = tested on: NCI-H23
[7] = tested on: NCI-H522
[8] = tested on: OVCAR-8
[9] = tested on: RXF 393
[10] = tested on: SF-268
[11] = tested on: SF-539
[12] = tested on: CCRF-CEM
[13] = tested on: HCT-116
[14] = tested on: Malme-3M
[15] = tested on: IGROV-1
[16] = tested on: SK-MEL-5

## CC(O)CN1C(=O)NC(Cc2ccccc2)C1=O (stereo not given)
[1]
  GI50: > 100 µM (inactive)
[2]
  GI50: > 100 µM (inactive)
[3]
  GI50: > 100 µM (inactive)
[4]
  GI50: > 100 µM (inactive)
[5]
  GI50: > 100 µM (inactive)
[6]
  GI50: > 100 µM (inactive)
[7]
  GI50: > 100 µM (inactive)
[8]
  GI50: > 100 µM (inactive)
[9]
  GI50: > 100 µM (inactive)
[10]
  GI50: > 100 µM (inactive)
[11]
  GI50: > 100 µM (inactive)

## O=C1Nc2ccccc2C1(O)C/C(=N/O)c1ccc2ccccc2c1 (stereo not given)
[1]
  GI50: > 100 µM (inactive)
[12]
  GI50: 47.2 µM (inactive)
[2]
  GI50: > 100 µM (inactive)
[13]
  GI50: > 100 µM (inactive)
[3]
  GI50: 41.8 µM (inactive)
[5]
  GI50: > 100 µM (inactive)
[14]
  GI50: > 100 µM (inactive)
[6]
  GI50: 71.9 µM (inactive)
[7]
  GI50: > 100 µM (inactive)
[8]
  GI50: > 100 µM (inactive)
[9]
  GI50: 58.9 µM (inactive)
[10]
  GI50: > 100 µM (inactive)
[11]
  GI50: > 100 µM (inactive)

## Cc1cc2c(c(C(N)=O)c1C)-c1ccccc1C2=O
[1]
  GI50: > 100 µM (inactive)
[12]
  GI50: > 100 µM (inactive)
[2]
  GI50: > 100 µM (inactive)
[13]
  GI50: > 100 µM (inactive)
[3]
  GI50: > 100 µM (inactive)
[4]
  GI50: > 100 µM (inactive)
[15]
  GI50: > 100 µM (inactive)
[5]
  GI50: > 100 µM (inactive)
[14]
  GI50: > 100 µM (inactive)
[6]
  GI50: > 100 µM (inactive)
[7]
  GI50: > 100 µM (inactive)
[8]
  GI50: > 100 µM (inactive)
[9]
  GI50: > 100 µM (inactive)
[10]
  GI50: > 100 µM (inactive)
[11]
  GI50: > 100 µM (inactive)

## COc1cccc(SSc2cccc(OC)c2C(=O)O)c1C(=O)O
[1]
  GI50: > 100 µM (inactive)
[12]
  GI50: > 100 µM (inactive)
[2]
  GI50: > 100 µM (inactive)
[13]
  GI50: > 100 µM (inactive)
[3]
  GI50: > 100 µM (inactive)
[4]
  GI50: > 100 µM (inactive)
[15]
  GI50: > 100 µM (inactive)
[5]
  GI50: > 100 µM (inactive)
[14]
  GI50: > 100 µM (inactive)
[6]
  GI50: > 100 µM (inactive)
[7]
  GI50: > 100 µM (inactive)
[8]
  GI50: > 100 µM (inactive)
[9]
  GI50: > 100 µM (inactive)
[10]
  GI50: > 100 µM (inactive)
[11]
  GI50: > 100 µM (inactive)
[16]
  GI50: > 100 µM (inactive)

## CCOC(=O)C(C)(NC(=O)c1ccc(NCc2ccc3nc(NC(=O)c4ccccc4)nc(NC(=O)c4ccccc4)c3c2)cc1)C(=O)OCC
[1]
  GI50: 8.17 µM (inactive)
[2]
  GI50: 19 µM (inactive)
[13]
  GI50: 6.97 µM (inactive)
[3]
  GI50: > 100 µM (inactive)
[4]
  GI50: 5.62 µM (inactive)
[15]
  GI50: 19.9 µM (inactive)
[5]
  GI50: 18.4 µM (inactive)
[14]
  GI50: 15 µM (inactive)
[6]
  GI50: 9.86 µM (inactive)
[7]
  GI50: 13.4 µM (inactive)
[8]
  GI50: 4.68 µM (inactive)
[9]
  GI50: 2.39 µM (inactive)
[10]
  GI50: 8.99 µM (inactive)
[11]
  GI50: 3.51 µM (inactive)
[16]
  GI50: 7.28 µM (inactive)

## CC(=O)NNc1nc(C)c(C(=O)NNC(=O)C(=O)Nc2c([N+](=O)[O-])ccc(C)c2C)s1
[1]
  GI50: > 100 µM (inactive)
[12]
  GI50: 31 µM (inactive)
[2]
  GI50: > 100 µM (inactive)
[13]
  GI50: > 100 µM (inactive)
[3]
  GI50: > 100 µM (inactive)
[4]
  GI50: > 100 µM (inactive)
[15]
  GI50: > 100 µM (inactive)
[5]
  GI50: > 100 µM (inactive)
[14]
  GI50: > 100 µM (inactive)
[6]
  GI50: > 100 µM (inactive)
[7]
  GI50: 50.9 µM (inactive)
[8]
  GI50: > 100 µM (inactive)
[10]
  GI50: 90.6 µM (inactive)
[11]
  GI50: > 100 µM (inactive)
[16]
  GI50: > 100 µM (inactive)

## COc1cc(C2C(C(=O)O)=C(C)Oc3cc4c(cc32)OCO4)cc(OC)c1OC (stereo not given)
[1]
  GI50: 45.2 µM (inactive)
[12]
  GI50: 29.9 µM (inactive)
[2]
  GI50: 58.5 µM (inactive)
[13]
  GI50: 37.1 µM (inactive)
[3]
  GI50: 15.7 µM (inactive)
[4]
  GI50: > 100 µM (inactive)
[15]
  GI50: 58.2 µM (inactive)
[5]
  GI50: 32.4 µM (inactive)
[14]
  GI50: 32.1 µM (inactive)
[6]
  GI50: 54.2 µM (inactive)
[8]
  GI50: 51.2 µM (inactive)
[9]
  GI50: 11.6 µM (inactive)
[16]
  GI50: 23.1 µM (inactive)

## COc1ccc(S(=O)(=O)N(C)CC(=O)O)cc1
[1]
  GI50: > 100 µM (inactive)
[12]
  GI50: > 100 µM (inactive)
[2]
  GI50: > 100 µM (inactive)
[3]
  GI50: > 100 µM (inactive)
[4]
  GI50: > 100 µM (inactive)
[15]
  GI50: > 100 µM (inactive)
[5]
  GI50: > 100 µM (inactive)
[14]
  GI50: > 100 µM (inactive)
[6]
  GI50: > 100 µM (inactive)
[7]
  GI50: > 100 µM (inactive)
[8]
  GI50: > 100 µM (inactive)
[9]
  GI50: > 100 µM (inactive)
[10]
  GI50: > 100 µM (inactive)
[11]
  GI50: > 100 µM (inactive)
[16]
  GI50: > 100 µM (inactive)

## CN(c1ccccc1)C(c1ccccc1)C(O)c1ccccc1 (stereo not given)
[1]
  GI50: 22.6 µM (inactive)
[12]
  GI50: 26.7 µM (inactive)
[2]
  GI50: 25.1 µM (inactive)
[13]
  GI50: 18.6 µM (inactive)
[3]
  GI50: 15.5 µM (inactive)
[4]
  GI50: 29.9 µM (inactive)
[15]
  GI50: 22.2 µM (inactive)
[5]
  GI50: 19.4 µM (inactive)
[14]
  GI50: 16.3 µM (inactive)
[6]
  GI50: 22.4 µM (inactive)
[7]
  GI50: 20 µM (inactive)
[8]
  GI50: 19.2 µM (inactive)
[10]
  GI50: 21.4 µM (inactive)
[11]
  GI50: 22.1 µM (inactive)
[16]
  GI50: 19.4 µM (inactive)

## Cc1ccc(S(=O)(=O)OC2CC=CC2)cc1
[1]
  GI50: > 100 µM (inactive)
[12]
  GI50: > 100 µM (inactive)
[2]
  GI50: > 100 µM (inactive)
[13]
  GI50: > 100 µM (inactive)
[3]
  GI50: > 100 µM (inactive)
[4]
  GI50: > 100 µM (inactive)
[15]
  GI50: > 100 µM (inactive)
[5]
  GI50: > 100 µM (inactive)
[14]
  GI50: > 100 µM (inactive)
[8]
  GI50: > 100 µM (inactive)
[9]
  GI50: > 100 µM (inactive)
[16]
  GI50: > 100 µM (inactive)

## CCN(CC)CCN1C(=O)CC2[C@@H]3CCc4cc(OC)ccc4C3CC[C@]2(C)C1=O (stereo not given in full)
[1]
  GI50: 96.4 µM (inactive)
[12]
  GI50: 18.8 µM (inactive)
[13]
  GI50: > 10 µM (inactive)
[3]
  GI50: 16.8 µM (inactive)
[4]
  GI50: 24 µM (inactive)
[15]
  GI50: 75.2 µM (inactive)
[5]
  GI50: 20.1 µM (inactive)
[14]
  GI50: 18.5 µM (inactive)
[6]
  GI50: 91.2 µM (inactive)
[7]
  GI50: 22.3 µM (inactive)
[9]
  GI50: 30.5 µM (inactive)
[10]
  GI50: 38.5 µM (inactive)
[11]
  GI50: 0.0134 µM (active)

## NCCCC(N)(C(=O)O)C(F)F (stereo not given) [EFLORNITHINE]
[1]
  GI50: > 100 µM (inactive)
[12]
  GI50: > 1580 µM (inactive)
[13]
  GI50: 815 µM (inactive)
[3]
  GI50: > 3910 µM (inactive)
[4]
  GI50: > 1890 µM (inactive)
[15]
  GI50: > 5000 µM (inactive)
[5]
  GI50: > 5000 µM (inactive)
[14]
  GI50: > 5000 µM (inactive)
[6]
  GI50: > 5000 µM (inactive)
[7]
  GI50: > 5000 µM (inactive)
[9]
  GI50: > 5000 µM (inactive)
[10]
  GI50: > 5000 µM (inactive)
[11]
  GI50: > 5000 µM (inactive)
[16]
  GI50: > 5000 µM (inactive)

## CCc1cc(CCC(=O)Nc2ccccc2[N+](=O)[O-])nc(S)n1
[1]
  GI50: > 100 µM (inactive)
[12]
  GI50: > 100 µM (inactive)
[2]
  GI50: > 100 µM (inactive)
[13]
  GI50: > 100 µM (inactive)
[3]
  GI50: > 100 µM (inactive)
[4]
  GI50: > 100 µM (inactive)
[15]
  GI50: > 100 µM (inactive)
[5]
  GI50: > 100 µM (inactive)
[6]
  GI50: > 100 µM (inactive)
[8]
  GI50: > 100 µM (inactive)
[9]
  GI50: > 100 µM (inactive)
[10]
  GI50: > 100 µM (inactive)
[11]
  GI50: > 100 µM (inactive)

## c1ccc2c(c1)[Se]c1ccccc1[Se]2
[1]
  GI50: > 100 µM (inactive)
[12]
  GI50: 57.8 µM (inactive)
[13]
  GI50: 28.1 µM (inactive)
[3]
  GI50: 27.1 µM (inactive)
[4]
  GI50: 25.8 µM (inactive)
[15]
  GI50: 47.6 µM (inactive)
[5]
  GI50: > 100 µM (inactive)
[14]
  GI50: > 100 µM (inactive)
[6]
  GI50: 63.5 µM (inactive)
[7]
  GI50: > 100 µM (inactive)
[8]
  GI50: > 100 µM (inactive)
[9]
  GI50: 61.8 µM (inactive)
[10]
  GI50: > 100 µM (inactive)
[11]
  GI50: 44.3 µM (inactive)
[16]
  GI50: > 100 µM (inactive)
